Assay results published in patent US20210253651A1, “METHOD FOR PRODUCING ORGANIC COMPOUND-ENCAPSULATING FERRITIN” (Ajinomoto Co., Inc., priority 2018, published 2021).
Where two headings read alike, the source gives them in different places.

Columns and labels:
[1] = pKa of the organic compound; assay type: physicochemical; settings: average of plural pKa values
Text: The pKa of the organic compound can be determined by a neutralization titration method (Kagaku Binran Kiso-hen I and II (Handbook of Chemistry, basic I and II) (Ver. 4) edited by The Chemical Society of Japan, Maruzen Publishing, 1993). […] When the organic compound has a single pKa value, the value is employed as the pKa of the organic compound.

FTH ferritin [2] = target: T1, FTH ferritin (Homo sapiens, UniProt P02794); assay: one-step process incorporation of small molecule agents into FTH ferritin; assay type: physicochemical; settings: for Incorporation efficiency (wt %) / Number of agent incorporated: 60 min; for Optimal pH in reaction: pH of buffer giving the largest amount of incorporation within ferritin
T1 construct: made in house; host or cells: Escherichia coli BL21 (DE3), plasmid pET20-FTH
Protocol: All of the reactions were performed in 0.1 mL volume. […] The absorbances were measured using spectrophotometer (DU-800, Beckman Coulter Inc.) for these solutions, and the concentration of contained protein was determined using the protein assay CBB solution (Nacalai Tesque, Inc.) as well as bovine albumin as a standard. Absorbances at 280 nm and 480 nm were measured for Rhodamine B and Congo Red. […] Then, after the absorbances were calibrated based on the absorbances that were derived from the proteins and presumed by the amount of contained protein quantified using the protein assay CBB solution, the concentrations of small molecule agents were determined based on the calibration curves obtained by the absorbances of the molecules. […] As a result, the one-step process enabled incorporating also the small molecule agents with different physical properties such as molecular weight and pKa simply and easily.

[3] = cited from earlier work
[4] = cited from earlier work; remark: listed apart in the source
FTH ferritin [5] = target: T1, FTH ferritin; assay: ratio of amounts incorporated, one-step vs disassembly-reassembly process; assay type: physicochemical
Protocol: As a control, some of small molecule agents listed in Table 1 was incorporated into ferritin also at the disassembly-reassembly process. […] Then, 10 μL of 1M Tris-HCl buffer (pH 9.0) was added for neutralization, and the resulting solution was left to stand for 15 minutes at room temperature. After the standing, 0.5 mL of water was added. After the resulting solution was centrifuged (at 15,000 rpm for one minute), the supernatant was injected into the desalting column PD-10 (Sephadex G-25 filled product, GE Healthcare Inc.) equilibrated with 10 mM Tris-HCl buffer (pH 8) to separate the protein from a reagent that was not encapsulated. […]
The absorbances were measured using spectrophotometer (DU-800, Beckman Coulter Inc.) for these solutions, and the concentration of contained protein was determined using the protein assay CBB solution (Nacalai Tesque, Inc.) as well as bovine albumin as a standard. Absorbances at 280 nm and 480 nm were measured for Rhodamine B and Congo Red. […] Then, after the absorbances were calibrated based on the absorbances that were derived from the proteins and presumed by the amount of contained protein quantified using the protein assay CBB solution, the concentrations of small molecule agents were determined based on the calibration curves obtained by the absorbances of the molecules. […]

FTH ferritin [6] = target: T1, FTH ferritin; assay: one-step process incorporation of uranine into FTH ferritin; assay type: physicochemical
Protocol: All reactions were carried out in 1 mL volume. After the standing and centrifuging (at 15,000 rpm for one minute), the supernatant was injected into the desalting column PD-10 (Sephadex G-25 filled product, GE Healthcare Inc.) equilibrated with 10 mM Tris-HCl buffer (pH 8) to separate the protein from a reagent that was not encapsulated, for obtaining 3.5 mL of sample solution. The absorbance at 430 nm was measured using spectrophotometer (DU-800, Beckman Coulter Inc.) for the resulting solution in order to determine the concentration of uranine. The concentration of contained protein was determined using the protein assay CBB solution (Nacalai Tesque, Inc.) as well as bovine albumin as a standard.

FTH ferritin [7] = target: T1, FTH ferritin; assay: disassembly-reassembly process incorporation of uranine into FTH ferritin; assay type: physicochemical
Protocol: As a control, uranine was incorporated into ferritin in the disassembly-reassembly process. […] Then, 10 μL of 1 M Tris-HCl buffer (pH 9.0) was added for neutralization, and the resulting solution was left to stand for 15 minutes at room temperature. After the standing, 0.5 mL of water was added. After the resulting solution was centrifuged (at 15,000 rpm for one minute), the supernatant was injected into the desalting column PD-10 (Sephadex G-25 filled product, GE Healthcare Inc.) equilibrated with 10 mM Tris-HCl buffer (pH 8) to separate the protein from a reagent that was not encapsulated. Whole amount (3.5 mL) of the resulting solution was concentrated to 0.1 mL by centrifugal ultrafiltration using Vivaspin 20-100K (GE Healthcare Inc.).

T1 sequence (P02794 whole entry): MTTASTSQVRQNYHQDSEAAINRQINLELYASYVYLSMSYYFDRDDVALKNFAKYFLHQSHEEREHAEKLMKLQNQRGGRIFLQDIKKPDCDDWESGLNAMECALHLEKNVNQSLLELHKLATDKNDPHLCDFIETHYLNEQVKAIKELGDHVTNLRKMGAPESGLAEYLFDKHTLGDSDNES

Structure (SMILES): CC(C)(C)NCC(O)c1cc(O)cc(O)c1 (centres unmarked) [Terbutaline]
- pKa [1]: 9.31
- Incorporation efficiency (wt %) (FTH ferritin [2]; pH 4, 40° C.): 0.0 wt %
- Number of agent incorporated (FTH ferritin [2]; pH 4, 40° C.): 0.0
- Incorporation efficiency (wt %) (FTH ferritin [2]; pH 6, 40° C.): 0.9 wt %
- Number of agent incorporated (FTH ferritin [2]; pH 6, 40° C.): 19.5
- Incorporation efficiency (wt %) (FTH ferritin [2]; pH 8, 40° C.): 0.9 wt %
- Number of agent incorporated (FTH ferritin [2]; pH 8, 40° C.): 21.0
- Incorporation efficiency (wt %) (FTH ferritin [2]; pH 10, 20° C.): 1.4 wt %
- Number of agent incorporated (FTH ferritin [2]; pH 10, 20° C.): 32.8
- Incorporation efficiency (wt %) (FTH ferritin [2]; pH 10, 40° C.): 1.2 wt %
- Number of agent incorporated (FTH ferritin [2]; pH 10, 40° C.): 27.1
- Incorporation efficiency (wt %) (FTH ferritin [2]; pH 10, 60° C.): 5.3 wt %
- Number of agent incorporated (FTH ferritin [2]; pH 10, 60° C.): 126.8
- Optimal pH in reaction (FTH ferritin [2]): 10
- pKa ([3]; second pKa value): 9.76
- pKa ([3]; single or first pKa value): 8.86
- logP [4]: 0.9

Structure (SMILES): Nc1c(/N=N/c2ccc(-c3ccc(/N=N/c4cc(S(=O)(=O)[O-])c5ccccc5c4N)cc3)cc2)cc(S(=O)(=O)[O-])c2ccccc12.[Na+].[Na+] [Congo Red]
- Incorporation efficiency (wt %) (FTH ferritin [2]; pH 3, 25° C.): 0.0 wt %
- Number of agent incorporated (FTH ferritin [2]; pH 3, 25° C.): 0.2
- Incorporation efficiency (wt %) (FTH ferritin [2]; pH 4, 25° C.): 0.5 wt %
- Number of agent incorporated (FTH ferritin [2]; pH 4, 25° C.): 3.7
- Incorporation efficiency (wt %) (FTH ferritin [2]; pH 5, 25° C.): 0.1 wt %
- Number of agent incorporated (FTH ferritin [2]; pH 5, 25° C.): 1.0
- Incorporation efficiency (wt %) (FTH ferritin [2]; pH 6, 10° C.): 0.2 wt %
- Number of agent incorporated (FTH ferritin [2]; pH 6, 10° C.): 1.4
- Incorporation efficiency (wt %) (FTH ferritin [2]; pH 6, 20° C.): 0.2 wt %
- Number of agent incorporated (FTH ferritin [2]; pH 6, 20° C.): 1.4
- Incorporation efficiency (wt %) (FTH ferritin [2]; pH 6, 25° C.): 0.1 wt %
- Number of agent incorporated (FTH ferritin [2]; pH 6, 25° C.): 0.9
- Incorporation efficiency (wt %) (FTH ferritin [2]; pH 6, 30° C.): 0.2 wt %
- Number of agent incorporated (FTH ferritin [2]; pH 6, 30° C.): 1.6
- Incorporation efficiency (wt %) (FTH ferritin [2]; pH 6, 40° C.): 0.2 wt %
- Number of agent incorporated (FTH ferritin [2]; pH 6, 40° C.): 1.7
- Incorporation efficiency (wt %) (FTH ferritin [2]; pH 6, 50° C.): 0.2 wt %
- Number of agent incorporated (FTH ferritin [2]; pH 6, 50° C.): 1.8
- Incorporation efficiency (wt %) (FTH ferritin [2]; pH 6, 60° C.): 0.4 wt %
- Number of agent incorporated (FTH ferritin [2]; pH 6, 60° C.): 2.8
- Incorporation efficiency (wt %) (FTH ferritin [2]; pH 7, 25° C.): 0.1 wt %
- Number of agent incorporated (FTH ferritin [2]; pH 7, 25° C.): 0.7
- Incorporation efficiency (wt %) (FTH ferritin [2]; pH 8, 25° C.): 0.1 wt %
- Number of agent incorporated (FTH ferritin [2]; pH 8, 25° C.): 0.8
- Incorporation efficiency (wt %) (FTH ferritin [2]; pH 9, 25° C.): 0.1 wt %
- Number of agent incorporated (FTH ferritin [2]; pH 9, 25° C.): 0.8
- Optimal pH in reaction (FTH ferritin [2]): 4
- pKa ([3]; single or first pKa value): 4.1
- logP [4]: −1.88

Structure (SMILES): CN(C)C(=N)NC(=N)N [Metformin]
- Incorporation efficiency (wt %) (FTH ferritin [2]; pH 4, 40° C.): 0.0 wt %
- Number of agent incorporated (FTH ferritin [2]; pH 4, 40° C.): 0.0
- Incorporation efficiency (wt %) (FTH ferritin [2]; pH 6, 40° C.): 0.0 wt %
- Number of agent incorporated (FTH ferritin [2]; pH 6, 40° C.): 0.2
- Incorporation efficiency (wt %) (FTH ferritin [2]; pH 8, 20° C.): 1.9 wt %
- Number of agent incorporated (FTH ferritin [2]; pH 8, 20° C.): 78.0
- Incorporation efficiency (wt %) (FTH ferritin [2]; pH 8, 40° C.): 0.1 wt %
- Number of agent incorporated (FTH ferritin [2]; pH 8, 40° C.): 2.9
- Incorporation efficiency (wt %) (FTH ferritin [2]; pH 8, 60° C.): 1.3 wt %
- Number of agent incorporated (FTH ferritin [2]; pH 8, 60° C.): 53.5
- Incorporation efficiency (wt %) (FTH ferritin [2]; pH 10, 40° C.): 0.0 wt %
- Number of agent incorporated (FTH ferritin [2]; pH 10, 40° C.): 1.8
- Optimal pH in reaction (FTH ferritin [2]): 8
- ratio of amount incorporated at the one-step process to that at the disassembly-reassembly process (FTH ferritin [5]): 2.5 fold

Structure (SMILES): Cc1ncc(C[n+]2csc(CCO)c2C)c(N)n1 [Thiamine]
- Incorporation efficiency (wt %) (FTH ferritin [2]; pH 4, 40° C.): 0.8 wt %
- Number of agent incorporated (FTH ferritin [2]; pH 4, 40° C.): 11.6
- Incorporation efficiency (wt %) (FTH ferritin [2]; pH 6, 40° C.): 0.9 wt %
- Number of agent incorporated (FTH ferritin [2]; pH 6, 40° C.): 13.9
- Incorporation efficiency (wt %) (FTH ferritin [2]; pH 8, 40° C.): 0.9 wt %
- Number of agent incorporated (FTH ferritin [2]; pH 8, 40° C.): 13.7
- Incorporation efficiency (wt %) (FTH ferritin [2]; pH 10, 40° C.): 0.9 wt %
- Number of agent incorporated (FTH ferritin [2]; pH 10, 40° C.): 13.6
- Optimal pH in reaction (FTH ferritin [2]): 6
- pKa ([3]; single or first pKa value): 5.5
- logP [4]: −4.6

Structure (SMILES): O=C([O-])c1ccccc1-c1c2ccc(=O)cc-2oc2cc([O-])ccc12.[Na+].[Na+] [Uranine]
- pKa (average) [1]: 4.4
- amount of encapsulated uranine, one-step vs disassembly-reassembly process (FTH ferritin [6]): 2.7 fold
- Uranine (FTH ferritin [6]; 30° C., pH 3): 71.0 µM
- Uranine/FTH ferritin (FTH ferritin [6]; 30° C., pH 3): 99.2
- Uranine (FTH ferritin [6]; 30° C., pH 5): 135.6 µM
- Uranine/FTH ferritin (FTH ferritin [6]; 30° C., pH 5): 183.6
- Uranine (FTH ferritin [6]; 30° C., pH 7): 68.5 µM
- Uranine/FTH ferritin (FTH ferritin [6]; 30° C., pH 7): 90.0
- Uranine (FTH ferritin [6]; 60° C., pH 3): 198.9 µM
- Uranine/FTH ferritin (FTH ferritin [6]; 60° C., pH 3): 267.5
- Uranine (FTH ferritin [6]; 60° C., pH 5): 201.4 µM
- Uranine/FTH ferritin (FTH ferritin [6]; 60° C., pH 5): 265.3
- Uranine (FTH ferritin [6]; 60° C., pH 7): 93.4 µM
- Uranine/FTH ferritin (FTH ferritin [6]; 60° C., pH 7): 137.7
- optimum value of the reaction pH presumed from average pKa (FTH ferritin [6]; presumed from pH=2.6+0.6 pKa relation): ~5
- Uranine (FTH ferritin [7]; uranine in reaction 1 mM): 864.5 µM
- Uranine/FTH ferritin (FTH ferritin [7]; uranine in reaction 1 mM): 36.7
- Uranine (FTH ferritin [7]; uranine in reaction 5 mM): 1186.3 µM
- Uranine/FTH ferritin (FTH ferritin [7]; uranine in reaction 5 mM): 47.2
- Uranine (FTH ferritin [7]; uranine in reaction 10 mM): 1382.1 µM
- Uranine/FTH ferritin (FTH ferritin [7]; uranine in reaction 10 mM): 52.6
- Uranine (FTH ferritin [7]; uranine in reaction 50 mM): 1764.2 µM
- Uranine/FTH ferritin (FTH ferritin [7]; uranine in reaction 50 mM): 72.5
- Uranine (FTH ferritin [7]; uranine in reaction 100 mM): 2106.1 µM
- Uranine/FTH ferritin (FTH ferritin [7]; uranine in reaction 100 mM): 100.2
- Uranine (FTH ferritin [7]; uranine in reaction 300 mM): 2405.1 µM
- Uranine/FTH ferritin (FTH ferritin [7]; uranine in reaction 300 mM): 90.8
- pKa ([3]; second pKa value): 4.4
- pKa ([3]; single or first pKa value): 2.2
- pKa ([3]; third printed pKa value): 6.7
